Data from patent publication US5667764A, “Compounds, compositions and methods for binding bio-affecting substances to surface membranes of bio-particles” (Zynaxis, Inc., priority 1992, dated 1997).

Assays:
membrane ghosts = assay: Membrane binding stability (MBS) assay in membrane ghosts with 5% albumin; conditions: 24 hours, Table III
From the text: Determination of Membrane Binding Stability
For example, very stable binding to membranes might be required for applications such as delivery of therapeutic radionuclides to tumor sites, as loss of compound could lead to the radionuclide producing its toxic effect at non-tumor sites. On the other hand, more rapid loss of compound from biomembranes may be desirable for application involving controlled delivery rates of therapeutic agents. Accordingly, there is described hereinbelow an assay for determining MBS under conditions approximating those found in vivo.
In carrying out this assay, approximately physiological concentrations of serum albumin (5%) are used. […] To better approximate the effects of large fluid volumes to which labelled cells are exposed in vivo, the assay for MBS is carried out by suspending a decreasing number of labeled membrane ghosts in a fixed volume of albumin-containing saline. At 24 hours, the total amount of label present is determined by sampling the well mixed suspension; subsequently, the membrane ghosts are pelleted by centrifugation and the amount of label released into the supernatant is determined and expressed as a percent of total label. Percent retention is plotted against number of ghosts per ml. of suspension, and MBS is determined as the area under the curve between 5×10^7 ghosts/ml. and 4×10^8 ghosts/ml.

[1] = tested on: cells (red cell membranes); assay: Number of molecules of compound incorporated per cell; format: cell-based; conditions: 10 μM compounds
Procedure: Number of molecules of compound incorporated per cell was determined for cells labeled with 10 μM compounds. An aliquot of 10^6 cells (10 ul) was withdrawn from the washed cells after final resuspension and counting, compounds were extracted from the cell membrane by admixture with 250 μl of 100% ethanol, and the fluorescence intensity of 200 μl of the extract was measured using a Fluoroskan II fluorescence microplate reader and filter combination. Concentration of compound in each extract was determined from a calibration curve of known compound concentrations made up in 100% ethanol and measured on the Fluoroskan II. Number of molecules of compound per cell was then calculated from the known extract concentration, total volume of extract, and known number of cells extracted. Calculated values were (4.0±0.4)×10^6 for compound T (1.3±0.2)×10^6 for compound AA and (2.5±0.7)×10^6 for compound AB.

[2] = tested on: erythrocyte membrane ghosts; assay: Relative membrane retention in erythrocyte membrane ghosts (iodination study); format: binding; conditions: 24 hours, 37° C., PBS+EDTA+5% BSA
Procedure: Relative membrane retention was determined using erythrocyte membrane ghosts prepared by NH4 Cl lysis (Slezak and Horan, Blood, supra). Ghosts were labeled at 4×10^8 /ml with 10 μM compounds for 5 minutes at room temperature, using previously described procedures. However, post-labeling washes were carried out using PBS containing 1 mM EDTA and 5% BSA. After the final wash, ghosts were resuspended at 4×10^8 /ml in PBS+EDTA+5% BSA and incubated for 24 hours at 37° C. At 24 hours, duplicate 50 μl aliquots were withdrawn from a) the well mixed suspension of ghosts (for determination of total compound present), and b) the supernatant remaining after ghosts were pelleted for 15 minutes at 12,500×g (for determination of unbound compound present). Aliquots were extracted by admixture with 200 μl of 100% ethanol and fluorescence intensity of each extract measured using the Fluoroskan II fluorescence microplate reader. Percent compound retained was calculated as
total compound--unbound compound×100/total compound

cells (red cells) = conditions: 20 uM
[3] = tested on: rabbit hind limb (femoral arterial bed), substance P receptors; assay: Vascular response in rabbit blood perfused hind limb preparation; format: in vivo; conditions: for ED50: calculated by logistic function, three rabbits; for Effect of antagonist [D-Pro^2,D-Trp^7.9]-substance P on the response: during infusion of antagonist; for Dose at which maximum fall in pressure is achieved / Threshold (minimum) dose required to produce a fall in perfusion pressure / Hind-limb perfusion pressure response: local injection; for Hind-limb perfusion pressure response: no antagonist
From the text: The in vivo receptor pharmacology of the compound produced in Example 3d., above, was studied in a rabbit blood perfused hind limb preparation similar to that described by U. Forstermann et al., J. Pharmacol. Exp. Ther., 234: 1055-61 (1987). Blood from a pentobarbital anesthetized, artificially ventilated rabbit was withdrawn from a cannulated carotid artery, passed within medical grade silastic tubing through a constant speed roller pump, and directed to a cannulated femoral artery. Distal perfusion pressure in the femoral arterial bed was measured (in mm Hg) by means of a micropressure transducer (Millar) passed down the perfusion tubing so as to lie just beyond the tip of the femoral catheter. Initially, pump speed was adjusted so that distal perfusion pressure approximated systemic mean arterial blood pressure after which blood flow was kept constant for the remainder of each experiment. Changes in resistance then varied directly as distal perfusion pressure in a manner similar to that described by Ohm's law, such that:
Vascular Resistance=Perfusion Pressure Blood Flow
Thus, by maintaining blood flow constant for the duration of each experiment, changes in distal perfusion pressure directly reflected vascular resistance such that a decrease in pressure signifies vasodilation and an increase in pressure signifies vasoconstriction. Direct injection into the perfusion circuit could thus be used to assess the vascular biology and pharmacology of substances believed to exert actions on in vivo vascular smooth muscle tone.

rabbit red blood cells [4] = conditions: native Substance P; cited from earlier work
rabbit red blood cells [5] = assay: Binding of conjugate to washed rabbit red blood cells, flow cytometry; format: cell-based; conditions: ex vivo, 100 uM
Procedure: The conjugate of Example 3d. […] The fluorescent moiety of the conjugate allows its ready detection on RBCs by flow cytometry. When conjugate labeled rabbit RBCs are injected in the rabbit hind-limb, a reduction in perfusion pressure occurs, the magnitude of which is related to the number of injected cells.

human RBCs = assay: Flow cytometry of conjugate-labeled human RBCs with anti-substance P antibody; format: cell-based
Procedure: Specifically, untreated RBCs and conjugate-labeled RBCs were analyzed to determine if:
1. The conjugate was incorporated on the surface of cells (FIG. 3A comparison).
2. Fluorescein isothiocyanate (FITC) conjugated goat anti-rabbit antibodies nonspecifically bound to the conjugate-labeled or non-labeled cells (FIG. 3B comparison), or
3. rabbit anti-substance P antibodies+FITC anti-rabbit antibodies specifically bound to the conjugate-labeled RBCs (FIG. 3C comparison).

rabbit red blood cells [6] = assay: In vivo stability of conjugate on red blood cells
Procedure: To study the in vivo characteristics of red blood cells labeled with the conjugate of Example 3d., above, 0.5 ml of fresh anticoagulated blood from each of 2 rabbits was labeled with the conjugate (final concentration, 10 μM) and injected back in the same rabbit from which the blood was taken. After the conjugate labeling but prior to injection, an aliquot of labeled cells was examined by flow cytometry to insure adequate labeling. Following in vivo administration of the labeled cells, blood samples were removed at 30 minutes, and then 1, 2, 3, 4, and 7 days and examined by flow cytometry for fluorescent cells.

## CCCCCCCCCCCCCCCCCCCCCC[N+]1=C(C=CC=C2N(CCCCCCCCCCCCCC)c3ccc(CNC=O)cc3C2(C)C)C(C)(C)c2ccccc21 [AB]
Membrane ghosts
  MBS: 91 ± 0.5%
[1]
  Number of molecules of compound incorporated per cell: (2.5±0.7)×10^6 molecules of compound per cell
[2]
  Percent compound retained: 96.8±1.3%
Cells (red cells)
  Viability and recovery: 70-80%

## CSCC[C@H](NC(=O)[C@H](CC(C)C)NC(=O)CNC(=O)[C@H](Cc1ccccc1)NC(=O)[C@H](Cc1ccccc1)NC(=O)[C@H](CCC(N)=O)NC(=O)[C@H](CCC(N)=O)NC(=O)[C@@H]1CCCN1C(=O)[C@H](CCCCN)NC(=O)[C@@H]1CCCN1C(=O)[C@@H](N)CCCNC(=N)N)C(N)=O [Substance P, reference compound]
[3]
  ED50: 0.13 pmol
  Effect of antagonist [D-Pro^2,D-Trp^7.9]-substance P on the response: inhibited by [D-Pro^2,D-Trp^7.9 ]-substance P
  Dose at which maximum fall in pressure is achieved: 3 to 10 pmol
  Threshold (minimum) dose required to produce a fall in perfusion pressure: approximately 0.003 pmoles
  Hind-limb perfusion pressure response: brief, dose-related decreases in hind-limb perfusion pressure
[3]; ratio of ED50
  Relative potency of substance P vs conjugate: 250 fold
Rabbit red blood cells [4]
  Lifetime in circulation: minutes

## CCCCCCCCCCCCCCCCCCCCCC[N+]1=C(C=CC=C2N(CCCCCCCCCCCCCC)c3ccc(CNC(=O)c4ccc(C(=O)NCCCC[C@H](NC(=O)[C@@H]5CCCN5C(=O)[C@@H](N)CCCNC(=N)N)C(=O)N5CCC[C@H]5C(=O)N[C@@H](CCC(N)=O)C(=O)N[C@@H](CCC(N)=O)C(=O)N[C@@H](Cc5ccccc5)C(=O)N[C@@H](Cc5ccccc5)C(=O)NCC(=O)N[C@@H](CC(C)C)C(=O)N[C@@H](CCSC)C(N)=O)cc4)cc3C2(C)C)C(C)(C)c2ccccc21 [conjugate of Example 3d]
[3]; 10^6 -10^9 labeled RBCs injected
  Perfusion pressure response to conjugate labeled RBCs: graded decreases in perfusion pressure in the rabbit hind limb preparation
[3]
  ED50: 34 pmol
  Effect of antagonist [D-Pro^2,D-Trp^7.9]-substance P on the response: inhibited by [D-Pro^2,D-Trp^7.9 ]-substance P
  Dose at which maximum fall in pressure is achieved: 1000 pmol
  Threshold (minimum) dose required to produce a fall in perfusion pressure: 1 to 10 pmol
  Hind-limb perfusion pressure response: brief, dose-related decreases in hind-limb perfusion pressure
[3]; listed as Substance P-lipophilic cyanine conjugate of Example 3.d.
  Hind-limb perfusion pressure response: capable of vasodilative activity which is qualitatively similar to that of native Substance P
[3]; supernatant fractions of labeled RBCs
  Vasodilator activity of supernatant fraction of labeled RBCs: contained a significant portion of the biological activity of the original cell suspension
Rabbit red blood cells [5]
  Binding to red blood cells: readily binds to washed rabbit red blood cells
Human RBCs; 10 μM, FIG. 3A
  Red fluorescent signal of labeled cells: increased red fluorescent signal when compared with the unlabeled cells
Human RBCs; FIG. 3C
  Recognition of cell-bound Substance P by anti-substance P antibody: significant amount of both green and red fluorescence detectable on the cells
Rabbit red blood cells [6]; up to 7 days
  In vivo dissociation from labeled cells: relatively slowly
Rabbit red blood cells [6]; vs free peptide
  Binding to red cells and effect in circulation: bind stably to red cells and to provide a protracted therapeutic effect in circulation
